Results from patent US20100256086A1, “NON-HYDROLYZABLE NUCLEOSIDE DI- OR TRI-PHOSPHATE DERIVATIVES AND USES THEREOF” (priority 2007, published 2010).
Entries after “also recorded” stand apart in the source; their conditions may differ. Like-named read-outs stand apart in the source and are kept apart here.

How the values were obtained:
turkey P2Y1 = target: T1, turkey P2Y1 (Meleagris gallopavo, UniProt P49652); experiment: Intracellular calcium measurement ([Ca2+]i, fura-2) in 1321N1 astrocytoma cells; type: cell-based
T1 construct: expressed in transfected cells
T1 sequence (P49652 whole entry): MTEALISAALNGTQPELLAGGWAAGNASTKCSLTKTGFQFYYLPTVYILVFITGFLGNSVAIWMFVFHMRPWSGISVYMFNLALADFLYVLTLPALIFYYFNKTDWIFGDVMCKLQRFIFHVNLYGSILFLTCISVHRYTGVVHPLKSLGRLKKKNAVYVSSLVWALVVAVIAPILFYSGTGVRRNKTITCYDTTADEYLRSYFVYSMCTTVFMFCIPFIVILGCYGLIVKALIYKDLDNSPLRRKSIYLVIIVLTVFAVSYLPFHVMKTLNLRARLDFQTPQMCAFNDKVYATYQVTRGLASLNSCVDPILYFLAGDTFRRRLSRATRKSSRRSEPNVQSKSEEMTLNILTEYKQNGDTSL
Method: Human 1321N1 astrocytoma cells stably expressing the turkey P2Y1, human P2Y2, human P2Y4 or rat P2Y6 were grown in Dulbecco's modified Eagle's medium containing 5% (v/v) fetal bovine serum, 100 units/ml penicillin, 100 μg/ml streptomycin and 500 μg/ml Geneticin (G-418, Life Technologies, Inc). Changes in the intracellular free calcium concentration, [Ca^2+]i were detected by dual-excitation spectrofluorometric analysis of cell suspensions loaded with fura-2, as previously described (Garrad et al., 1998; Grynkiewicz et al., 1985). Cells were assayed in 10 mM Hepes-buffered saline (pH 7.4) containing 1 mM CaCl2 and 1 mM MgCl2. The cells were pelleted in a microfuge and resuspended in 2 ml of buffer. Concentration-response data were analyzed with the Prism curve fitting program (GraphPAD Software, San Diego, Calif.). Three experiments were conducted on separate days for each P2Y receptor subtype.
The activities of compounds 2, 4B, 17, 18, 19A, 21 (isomers A and B) were examined at the G protein-coupled P2YRs, P2Y1, P2Y2, P2Y4 and P2Y6 expressed in human 1321N1 astrocytoma cells, based on intracellular calcium measurements, as described in Experimental above. In particular, the activity of compound 2, 4B and 19 was examined at P2Y1R, P2Y2R, P2Y4R and P2Y6R, and the activity of compounds 17, 18 and 21 was examined at P2Y1R only. The experiments were conducted by Prof. Gary A. Weisman from Columbia-Missouri University, Columbia, Mo., USA.

[1] = Chemical stability at pH 1.4 and 37° C. evaluated by HPLC; type: physicochemical; conditions: pH 1.4, 37° C., after 19 h
Method: The stability of 3 (isomer B) in the appropriate buffer solution (0.2 M HCl/KCl, pH=1.4) at 37° C. was evaluated by HPLC-electrospray ionization (ESI)MS for 5 days at 7-17 h intervals, and its hydrolysis rate, based on the HPLC integration changes of the 3B peak with time, was fit to a pseudo first-order exponential decay rate equation, as shown in FIGS. 2A-2B. In addition to 3B, degradation products 6, 7 and 8 were identified in the hydrolysis mixture, as depicted in Scheme 3. For instance, after 19 h, 50% of 3B was degraded giving rise to 37% of AMP-α-B and AMP-α-H (6 and 7, respectively. Both appear at the same retention time; however, MS enabled the identification of these compounds) and 13% adenosine (FIG. 2A). […]
The stability of 4 (isomer B) in the appropriate buffer solution (pH=1.4) at 37° C. was evaluated by HPLC to monitor possible dephosphorylation products. […] The solution was kept in an oil bath at 37° C. and its composition was analyzed by HPLC-MS, using a Gemini analytic column (5u C-18 110A, 150×4.60 mm) and gradient elution with Solvent System I (see Example 1) at 89:11 A:B for 15 min and then 82:18 to 74:26 A:B for 20 min at a flow rate of 1 ml/min. […] The hydrolysis rate of 4 was determined by measuring the change in the integration of the HPLC peaks of the degradation products, 6, 7 and 8, with time.

[2] = Stability in human blood serum, Method A; type: in vitro ADME; conditions: human blood serum and RPMI-1640, 37° C.
Method: Preparation of the Human Blood Serum: Blood Taken from Healthy Volunteers was obtained from a blood bank (Tel-Hashomer hospital, Israel), stored for 12 h at 4° C. and centrifuged in plastic tubes at 1500 g for 15 min at room temperature. The serum was separated and stored at −80° C.
The assay mixture, containing a 40 mM nucleotide derivative solution in deionized water (4.5 μl), human blood serum (180 μl) and RPMI-1640 (540 μl), was incubated at 37° C. for 1, 4, 8, 16, 24, 48, 72 and 96 h. The samples were then treated with 0.6 M of hydrochloric acid (430 μl), centrifuged for 2 min (13,000 g, 4° C.), neutralized by addition of 4 M of KOH, centrifuged for 2 min (13,000 g, 4° C.) and freeze-dried. The stability of the nucleotide was evaluated by HPLC for monitoring possible dephosphorylation products. The mixture was separated on a Gemini analytic column (5u C-18 110A, 150×4.60 mm) with gradient elution [0.01 M KH2PO4 pH=4.5 (A)/acetonitrile (B), 100:0→60:40, A:B, 20 min for 2, 3A and 3B; 100:0→95:5, A:B, 10 min for ATP] and flow rate of 1 ml/min. The hydrolysis rate was determined by measuring the change in the integration of the respective HPLC peaks with time.

[3] = target: T2, calf intestine alkaline phosphatase (Bos taurus, UniProt P19111); experiment: Enzymatic stability to alkaline phosphatase; type: in vitro ADME; conditions: 37° C., as in Example 6
T2 construct: purchased Fermentas Inc., Glen Burnie, Md
T2 sequence (P19111 20-506): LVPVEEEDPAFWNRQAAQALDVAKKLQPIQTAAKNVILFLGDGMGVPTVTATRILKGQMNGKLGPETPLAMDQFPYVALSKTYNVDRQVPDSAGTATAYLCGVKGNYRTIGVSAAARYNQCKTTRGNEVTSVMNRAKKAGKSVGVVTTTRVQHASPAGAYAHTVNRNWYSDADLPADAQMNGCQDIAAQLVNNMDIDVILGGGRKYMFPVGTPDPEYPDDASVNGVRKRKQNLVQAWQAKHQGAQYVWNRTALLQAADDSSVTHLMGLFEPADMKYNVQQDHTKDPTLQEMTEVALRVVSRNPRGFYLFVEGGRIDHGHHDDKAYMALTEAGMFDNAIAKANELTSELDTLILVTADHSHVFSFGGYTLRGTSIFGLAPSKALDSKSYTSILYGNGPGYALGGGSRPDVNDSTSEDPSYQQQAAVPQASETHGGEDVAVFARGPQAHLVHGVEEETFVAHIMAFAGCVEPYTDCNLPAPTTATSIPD
Method: Enzyme activity was measured by the release of p-nitrophenol from the nucleotide derivatives using a UV-vis spectrophotometer at 405 nm. Relative activity and resistance of nucleotides to enzymatic hydrolysis were determined at 37° C. Briefly, 32.5 μl of nucleotide derivative (77 μg/ml in 0.1 M Tris-HCl and 0.1 M MgCl2, pH 7.5) and 6 μl of deionized water were incubated with calf intestine alkaline phosphatase (Fermentas Inc., Glen Burnie, Md., 1 unit/μl, 6.25 μl at 37° C. final pH=9.8). After 30 min, the reaction was stopped by incubation at 80° C. for 30 min. The stability of the nucleotide derivative was evaluated by HPLC to monitor possible dephosphorylation products. The mixture was separated on a Gemini analytic column (5u C-18 110A, 150×4.60 mm) using gradient elution with Solvent System I (see Example 1) at 90:10 to 70:30 A:B for 3A and 3B, and 82:18 to 50:50 for 4A, 4B and 2 over 20 min and at a flow rate of 1 ml/min.

rP2Y1R = target: T3, rP2Y1R (Rattus norvegicus, UniProt P49651); conditions: HEK293 cells expressing rP2Y1R, Ca2+ mobilization; cited from earlier work
T3 construct: host or cells: HEK293 cells
T3 sequence (P49651 whole entry): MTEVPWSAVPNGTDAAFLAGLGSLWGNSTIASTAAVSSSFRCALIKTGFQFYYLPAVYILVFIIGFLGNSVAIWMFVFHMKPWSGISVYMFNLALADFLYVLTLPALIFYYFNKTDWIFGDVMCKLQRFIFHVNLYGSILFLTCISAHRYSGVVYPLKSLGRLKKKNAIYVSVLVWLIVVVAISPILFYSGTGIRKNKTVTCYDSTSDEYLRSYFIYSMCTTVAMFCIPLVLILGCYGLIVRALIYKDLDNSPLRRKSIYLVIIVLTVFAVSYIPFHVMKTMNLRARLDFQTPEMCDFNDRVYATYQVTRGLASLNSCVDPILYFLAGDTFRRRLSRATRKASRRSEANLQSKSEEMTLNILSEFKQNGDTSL

[4] = Glucose challenge in cannulated Wistar rats (insulin secretagogue efficacy); type: in vivo, rat; conditions: starved Wistar rats
Text: The objective of this experiment is to study in vivo the efficacy of the compounds of the present invention as insulin secretion enhancing molecules, following a single oral gavage (per os) administration of glucose to cannulated Wister rats, by measuring the blood glucose and insulin levels following administration of the tested compound to the cannulated rats intra venues through the cannule.
A total of about 40 healthy 10-13 week old Wister rats are used. Animals are acclimatized for at least 4 days prior to commencement of treatment and are fed with non-medicated commercial sterile rodent food ad libitum. Drinking tap water are available ad libitum.
About 48 hours prior treatment, rats are weighted and a population uniform in weight (about 90% of the animals) is taken for cannulation. In particular, animals are anesthetized by 2.5% isofluran 97.5% dry air inhalation, and a P52 cannula is surgically inserted and fixed in the jugular vein and flushed with 0.3-0.5 ml 5% heparinized saline after cannulation (and thereafter, immediately after each blood collection). In case a technical problem such as fixation or clotting arises with a rat's indwelling cannula, another rat is cannulated and replace the previously allocated rat in the study.
On the day of treatment, the cannule of each one of the rats is checked, the rats are weighed, and the glucose level of each one of the rats is checked via the tail vain. […]
Glucose and insulin levels are measured 30 minutes prior to glucose administration (and prior to glibenclamide administration in the case of the positive control group); immediately before and 5 minutes after glucose administration; 15 minutes after glucose administration, namely, 5 minutes after administration of the tested compound or saline (in the cases of the first and the negative control groups, respectively); and then 30, 45, 60 120 and 150 minutes after glucose administration. […]

SMILES: B[P@](=O)(OC[C@H]1O[C@@H](n2cnc3c(N)ncnc32)[C@H](O)[C@@H]1O)OP(=O)(O)CP(=O)(O)O (single isomer, unassigned) [Compound 3B, Adenosine-β,γ-CH2-5′-O-(1-boranotriphosphate)]
- activity at P2Y1R, in words (turkey P2Y1): practically inactive
- activities at the P2YRs tested (turkey P2Y1; P2Y1, P2Y2, P2Y4 and P2Y6 tested): insignificant activities
- fraction degraded [1]: 50%
- half-life in human blood serum [2]: 47.1 h

SMILES: Nc1ncnc2c1ncn2[C@@H]1O[C@H](COP(=O)(O)OP(=O)(O)O)[C@@H](O)[C@H]1O [ADP, reference compound]
- half-life in human blood serum: about 2 h
- t1/2 to alkaline phosphatase [3]: about 4 h

SMILES: CSc1nc(N)c2ncn([C@@H]3O[C@H](COP(=O)(O)OP(=O)(O)OP(=O)(O)O)[C@@H](O)[C@H]3O)c2n1 [Compound 2-MeS-ATP, 2-MeS-ATP]
- EC50 (rP2Y1R): 1 nM

SMILES: [BH3-]P(=O)(OC[C@H]1O[C@@H](n2cnc3c(N)nc(SC)nc32)[C@H](O)[C@@H]1O)OP(=O)([O-])[O-].[Na+].[Na+].[Na+] (stereo partly drawn) [Compound 19, 2MeS-adenosine-5′-O-(Pα-borano) diphosphate]
- glucose levels after glucose challenge relative to saline treated rats ([4]; 2.5 mg/kg IV 10 minutes after glucose challenge, preliminary study): reduced the glucose levels; also recorded: reduces glycemia

SMILES: COc1ccc(Cl)cc1C(=O)NCCc1ccc(S(=O)(=O)NC(=O)NC2CCCCC2)cc1 [glibenclamide, reference compound]
- glucose levels after glucose challenge relative to saline treated rats ([4]; 0.25 mg/kg per os 30 minutes prior to glucose, positive control): reduced the glucose levels
